# Experimental data reported in patent publication US20190225650A1, “PEPTIDOMIMETIC MACROCYCLES AND USE THEREOF IN REGULATING HIF1ALPHA” (AILERON THERAPEUTICS, INC., priority 2013, published 2019).
# Bridge positions count the residues as written; N and C are the ends. Square brackets hold non-standard residues; d marks the D form. Peptide text beside a SMILES is read from it. R8 = C=CCCCCCC[C@@](C)(N)C(=O)O; S5 = C=CCCC[C@](C)(N)C(=O)O; Nle = CCCC[C@H](N)C(=O)O
# Columns and labels:
# [1] = biological target: T1, flag-tagged HIF1α (AA 786-826) / His6-tagged p300 (AA 323-423) complex (Homo sapiens, UniProt Q09472); assay: HIF1α p300 displacement assay (TR FRET, +CHAPS); type: binding; conditions: read-out: IC50 (nM) (HIF1α_p300 Displacement + CHAPS)
# T1 construct: His6-tagged p300 (AA 323-423); made in house; host or cells: E. coli (pETDuet vector)
# Outline: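 The co-expressed flag-HIF1α (786-826)/His6-p300 (323-423) complex, purified from E. coli with 0.1 mM ZnSO4, was used at 300 nM final with competitor peptides for 1 h at room temperature. Buffer was 150 mM NaCl, 20 mM HEPES pH 7.4, 7.5 mM CHAPS and 1 mM DTT. Anti-Flag-K (0.5 μM) and anti-His-D2 (4 nM) were then added for 2 h, and IC50s were fitted from the TR-FRET ratio.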
# HRE-bla ME-180 cells [2] = assay: Cell proliferation assay (viability, MTT, 1% FBS); type: cell-based, human
# Outline: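 ME-180 cells (2×10^4/well) in Opti-MEM with 1% FBS were pretreated 16 h under normoxia (21% O2), vehicle 0.5% DMSO final. Incubation then continued under normoxia or hypoxia (1% O2); viable cells quantified by MTT-type CellTiter 96 assay.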
# HRE-bla ME-180 cells [3] = assay: Reporter gene assay (HRE-bla ME-180 HIF reporter, GeneBLAzer); type: cell-based, human; conditions: for EC50: 24 hour normoxia
# Outline: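 A FRET β-lactamase readout of HIF transcription was used. After compound treatment in 0.3% DMSO/media under normoxic conditions, 20 μl of 6× LiveBLAzer-FRET B/G (CCF4-AM) substrate was added. Plates sat 3 hr at room temperature in the dark and were read at 409 Ex/460Em and 409Ex/530Em on a Synergy 2. Inhibition was compared against DMSO vehicle controls, with chetomin as positive control.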
SMILES,IC50 [1],EC50 (HRE-bla ME-180 cells [3]),Viability 1% FBS AVG (MTT V3-24 hr Normoxia) (μM) (HRE-bla ME-180 cells [2]),18 h Avg % max inhibition at top conc (HIF Rptr-24 hrs normoxia) (μM) (HRE-bla ME-180 cells [3])
"CCCC[C@H](NC(=O)[C@H](CC(C)C)NC(=O)[C@@H](NC(=O)[C@H](CCC(=O)O)NC(=O)[C@H](CCC(=O)O)NC(=O)[C@H](CC(=O)O)NC(=O)[C@@H](NC(=O)[C@H](CC(N)=O)NC(=O)[C@@H](NC(=O)[C@H](CCC(N)=O)NC(=O)[C@H](CC(=O)O)NC(=O)[C@]1(C)CCCC=CCCCCCC[C@@](C)(NC(=O)[C@H](CCC(N)=O)NC(=O)[C@H](CC(C)C)NC(=O)[C@H](CC(C)C)NC(C)=O)C(=O)N[C@@H](CCC(=O)O)C(=O)N[C@@H](CCC(=O)O)C(=O)N[C@@H](CC(C)C)C(=O)N[C@@H](CC(C)C)C(=O)N[C@@H](CCCNC(=N)N)C(=O)N[C@@H](C)C(=O)N1)C(C)C)[C@@H](C)CC)C(C)C)C(=O)N[C@@]1(C)CCCC=CCCC[C@@](C)(C(=O)N[C@@H](CCCC)C(=O)NCC(N)=O)NC(=O)[C@H]([C@@H](C)CC)NC(=O)[C@H](C(C)C)NC(=O)[C@H](CC(C)C)NC1=O [SP-341] (Ac-LLQ[R8]EELLRA[S5]DQVNIDEEVL[Nle][S5]LVI[S5][Nle]G-NH2; staple 4-11, 23-27)",200 to 400 nM,> 30 µM,++++ (≥30: ++++),+ (<10: +)
"CCCC[C@H](NC(=O)[C@H](CC(C)C)NC(=O)[C@@H](NC(=O)[C@H](CCC(=O)O)NC(=O)[C@H](CCC(=O)O)NC(=O)[C@H](CC(=O)O)NC(=O)[C@@H](NC(=O)[C@H](CC(N)=O)NC(=O)[C@@H](NC(=O)[C@H](CCC(N)=O)NC(=O)[C@]1(C)CCCC=CCCCCCC[C@@](C)(NC(=O)CNC(=O)[C@H](CCC(N)=O)NC(=O)[C@H](CC(C)C)NC(=O)[C@H](CC(C)C)NC(C)=O)C(=O)N[C@@H](CCC(=O)O)C(=O)N[C@@H](CC(C)C)C(=O)N[C@@H](CC(C)C)C(=O)N[C@@H](CCCNC(=N)N)C(=O)N[C@@H](C)C(=O)N[C@@H](CC(C)C)C(=O)N1)C(C)C)[C@@H](C)CC)C(C)C)C(=O)N[C@@]1(C)CCCC=CCCC[C@@](C)(C(=O)N[C@@H](CCCC)C(=O)NCC(N)=O)NC(=O)[C@H]([C@@H](C)CC)NC(=O)[C@H](C(C)C)NC(=O)[C@H](CC(C)C)NC1=O [SP-342] (Ac-LLQG[R8]ELLRAL[S5]QVNIDEEVL[Nle][S5]LVI[S5][Nle]G-NH2; staple 5-12, 23-27)",> 700 nM,> 30 µM,++++ (≥30: ++++),+++ (≤25 but <50: +++)
"CCCC[C@H](NC(=O)[C@H](CCC(=O)O)NC(=O)[C@]1(C)CCCC=CCCCCCC[C@@](C)(NC(=O)[C@H](CCC(=O)O)NC(=O)[C@H](CC(=O)O)NC(=O)[C@@H](NC(=O)[C@H](CC(N)=O)NC(=O)[C@@H](NC(=O)[C@H](CCC(N)=O)NC(=O)[C@H](CC(=O)O)NC(=O)[C@H](CC(C)C)NC(=O)[C@H](C)NC(=O)[C@]2(C)CCCC=CCCC[C@](C)(NC(=O)CNC(=O)[C@H](CCC(N)=O)NC(=O)[C@H](CC(C)C)NC(=O)[C@H](CC(C)C)NC(C)=O)C(=O)N[C@@H](CCC(=O)O)C(=O)N[C@@H](CC(C)C)C(=O)N[C@@H](CC(C)C)C(=O)N2)C(C)C)[C@@H](C)CC)C(=O)N[C@@H](C(C)C)C(=O)N[C@@H](CC(C)C)C(=O)N[C@@H](CCCC)C(=O)N[C@@H](CO)C(=O)N[C@@H](CC(C)C)C(=O)N[C@@H](C(C)C)C(=O)N1)C(=O)NCC(N)=O [SP-343] (Ac-LLQG[S5]ELL[S5]ALDQVNIDE[R8]VL[Nle]SLV[S5]E[Nle]G-NH2; staple 5-9, 19-26)",200 to 400 nM,> 30 µM,++++ (≥30: ++++),+ (<10: +)
"CCCC[C@H](NC(=O)[C@H](CCC(=O)O)NC(=O)[C@]1(C)CCCC=CCCCCCC[C@@](C)(NC(=O)[C@H](CCC(=O)O)NC(=O)[C@H](CC(=O)O)NC(=O)[C@@H](NC(=O)[C@H](CC(N)=O)NC(=O)[C@@H](NC(=O)[C@H](CCC(N)=O)NC(=O)[C@H](CC(=O)O)NC(=O)[C@]2(C)CCCC=CCCC[C@](C)(NC(=O)[C@H](CCC(=O)O)NC(=O)[C@H](CCC(=O)O)NC(=O)CNC(=O)[C@H](CCC(N)=O)NC(=O)[C@H](CC(C)C)NC(=O)[C@H](CC(C)C)NC(C)=O)C(=O)N[C@@H](CC(C)C)C(=O)N[C@@H](CCCNC(=N)N)C(=O)N[C@@H](C)C(=O)N2)C(C)C)[C@@H](C)CC)C(=O)N[C@@H](C(C)C)C(=O)N[C@@H](CC(C)C)C(=O)N[C@@H](CCCC)C(=O)N[C@@H](CO)C(=O)N[C@@H](CC(C)C)C(=O)N[C@@H](C(C)C)C(=O)N1)C(=O)NCC(N)=O [SP-344] (Ac-LLQGEE[S5]LRA[S5]DQVNIDE[R8]VL[Nle]SLV[S5]E[Nle]G-NH2; staple 7-11, 19-26)",400 to 700 nM,> 30 µM,++++ (≥30: ++++),+ (<10: +)

# Second part, led by results:
IC50 [1],EC50 (HRE-bla ME-180 cells [3]),SMILES,Viability 1% FBS AVG (MTT V3-24 hr Normoxia) (μM) (HRE-bla ME-180 cells [2]),18 h Avg % max inhibition at top conc (HIF Rptr-24 hrs normoxia) (μM) (HRE-bla ME-180 cells [3])
> 700 nM,> 30 µM,"CCCC[C@H](NC(=O)[C@H](CC(C)C)NC(=O)[C@@H](NC(=O)[C@H](CCC(=O)O)NC(=O)[C@H](CCC(=O)O)NC(=O)[C@H](CC(=O)O)NC(=O)[C@@H](NC(=O)[C@H](CC(N)=O)NC(=O)[C@@H](NC(=O)[C@H](CCC(N)=O)NC(=O)[C@H](CC(=O)O)NC(=O)[C@H](CC(C)C)NC(=O)[C@H](C)NC(=O)[C@]1(C)CCCC=CCCC[C@](C)(NC(=O)CNC(=O)[C@H](CCC(N)=O)NC(=O)[C@H](CC(C)C)NC(=O)[C@H](CC(C)C)NC(C)=O)C(=O)N[C@@H](CCC(=O)O)C(=O)N[C@@H](CC(C)C)C(=O)N[C@@H](CC(C)C)C(=O)N1)C(C)C)[C@@H](C)CC)C(C)C)C(=O)N[C@@]1(C)CCCC=CCCC[C@@](C)(C(=O)N[C@@H](CCCC)C(=O)NCC(N)=O)NC(=O)[C@H]([C@@H](C)CC)NC(=O)[C@H](C(C)C)NC(=O)[C@H](CC(C)C)NC1=O [SP-338] (Ac-LLQG[S5]ELL[S5]ALDQVNIDEEVL[Nle][S5]LVI[S5][Nle]G-NH2; staple 5-9, 23-27)",++++ (≥30: ++++),+++ (≤25 but <50: +++)
200 to 400 nM,> 30 µM,"CCCC[C@H](NC(=O)[C@H](CC(C)C)NC(=O)[C@@H](NC(=O)[C@H](CCC(=O)O)NC(=O)[C@H](CCC(=O)O)NC(=O)[C@H](CC(=O)O)NC(=O)[C@@H](NC(=O)[C@H](CC(N)=O)NC(=O)[C@@H](NC(=O)[C@H](CCC(N)=O)NC(=O)[C@H](CC(=O)O)NC(=O)[C@]1(C)CCCC=CCCC[C@](C)(NC(=O)[C@H](CCC(=O)O)NC(=O)[C@H](CCC(=O)O)NC(=O)CNC(=O)[C@H](CCC(N)=O)NC(=O)[C@H](CC(C)C)NC(=O)[C@H](CC(C)C)NC(C)=O)C(=O)N[C@@H](CC(C)C)C(=O)N[C@@H](CCCNC(=N)N)C(=O)N[C@@H](C)C(=O)N1)C(C)C)[C@@H](C)CC)C(C)C)C(=O)N[C@@]1(C)CCCC=CCCC[C@@](C)(C(=O)N[C@@H](CCCC)C(=O)NCC(N)=O)NC(=O)[C@H]([C@@H](C)CC)NC(=O)[C@H](C(C)C)NC(=O)[C@H](CC(C)C)NC1=O [SP-339] (Ac-LLQGEE[S5]LRA[S5]DQVNIDEEVL[Nle][S5]LVI[S5][Nle]G-NH2; staple 7-11, 23-27)",++++ (≥30: ++++),+ (<10: +)
> 700 nM,> 30 µM,"CCCC[C@H](NC(=O)[C@H](CC(C)C)NC(=O)[C@@H](NC(=O)[C@H](CCC(=O)O)NC(=O)[C@H](CCC(=O)O)NC(=O)[C@H](CC(=O)O)NC(=O)[C@@H](NC(=O)[C@H](CC(N)=O)NC(=O)[C@@H](NC(=O)[C@]1(C)CCCC=CCCC[C@](C)(NC(=O)[C@H](CC(C)C)NC(=O)[C@H](CC(C)C)NC(=O)[C@H](CCC(=O)O)NC(=O)[C@H](CCC(=O)O)NC(=O)CNC(=O)[C@H](CCC(N)=O)NC(=O)[C@H](CC(C)C)NC(=O)[C@H](CC(C)C)NC(C)=O)C(=O)N[C@@H](C)C(=O)N[C@@H](CC(C)C)C(=O)N[C@@H](CC(=O)O)C(=O)N1)C(C)C)[C@@H](C)CC)C(C)C)C(=O)N[C@@]1(C)CCCC=CCCC[C@@](C)(C(=O)N[C@@H](CCCC)C(=O)NCC(N)=O)NC(=O)[C@H]([C@@H](C)CC)NC(=O)[C@H](C(C)C)NC(=O)[C@H](CC(C)C)NC1=O [SP-340] (Ac-LLQGEELL[S5]ALD[S5]VNIDEEVL[Nle][S5]LVI[S5][Nle]G-NH2; staple 9-13, 23-27)",++++ (≥30: ++++),++ (≤10 but <25: ++)
